Reference: patent publication US20100221709A1, “METHODS FOR IDENTIFYING AGENTS THAT MODULATE APOPTOSIS IN CELLS THAT OVER-EXPRESS A BCL-2 FAMILY MEMBER PROTEIN” (priority 2005, published 2010)

How the values were obtained:
Bcl-xLΔC20 = molecular target: T1, Bcl-xLΔC20 (Homo sapiens, UniProt Q07817); test: Calcein leakage from large unilamellar vesicles (pore formation); format: biochemical; conditions: 12 μM
T1 construct: poly-His (N); made in house
Procedure: The Bcl-xL protein has reversible pore-forming activity. Recombinant human Bcl-xL lacking the C-terminal 20-residue membrane anchor sequence, Bcl-xLΔC20, forms pores in large unilamellar vesicles. A reporter, calcein, can leak out of the vesicles through these pores.
Large unilamellar vesicles composed of 60% dioleoylphosphatidylcholine and 40% oleoylphosphatidylglycerol were prepared by the extrusion method of Mayer et al. (Biochim. Biophys. Acta 858:161-168 (1986)). Briefly, a dry film of lipid was resuspended in an aqueous solution containing 40 mM calcein (Molecular Probes, Eugene, Oreg.), 25 mM KCl and 10 mM HEPES (pH 7.0). […] The size of the vesicle suspension was measured by a Coulter N4 Plus-Sizer to confirm that the mean diameter of the vesicle sample was close to the expected size (100 nm). The osmolalities of all solutions were measured in a cryoscopic osmometer (Wescor Inc., Logan, Utah) and adjusted to 0.21 Osmol/kg by the addition of sodium chloride, as necessary. Lipid concentration was measured as described previously (Stewart, Anal. Biochem. 104:10-14 (1989)).
Calcein leakage was determined by adding 2-4 μg of purified Bcl-xLΔC20 (5 μg/ml, 161 nM) to a solution of 100 mM NaCl, 10 mM HEPES (pH 5.0) containing the large unilamellar vesicles (50 μM final lipid concentration) described above. […]

[1] = test system: TAMH hepatocyte and RPMI-8226 myeloma cell lines; test: O2 consumption, Clark electrode; format: cell-based; conditions: 10 μM
Procedure: Respiratory rates of both cell lines were maintained through repeated additions of 10 μM 2-OMeAA, to a final concentration of 90 μM (FIG. 7A). […] The metabolic response to hypoxia is dominated by a shift to glycolytic metabolism characterized by increased rates of glucose uptake and reductive conversion of pyruvate to lactic acid. Real-time glucose consumption and lactate production by TAMH cells grown on microcarrier beads were monitored using a microsequential injection-lab on valve (μSI-LOV) system (Schulz et al., Analyst 127:1293-1298 (2002)). […] Since 2-OMeAA has no effect on cellular respiration at these concentrations, 2-OMeAA induces aerobic glycolysis in TAMH cells. The glycolytic response to 2-OMeAA was proportional to cellular Bcl-xL protein expression (FIG. 7C).

control mitochondria = test: Rhodamine 123 retention assay, isolated mitochondria; format: biochemical, murine; conditions: five minutes after addition
Procedure: (§1) Rh-123 is a cationic lipid-soluble fluorescent dye that accumulates in mitochondria in proportion to the mitochondrial membrane potential. Mitochondria were isolated from TABX2S cells (over-expressing Bcl-xL) and from control cells, prepared as described in Example 2. The isolated mitochondria were loaded with Rh-123 by incubation with 10 μM Rh-123 for 30 minutes, washing and resuspention in buffer. […] Less than 40% of Rh-123 was retained in antimycin A-treated TABX2S mitochondria, compared with greater than 80% retained in control mitochondria.

[2] = test system: mitochondria from TABX2S cells; test: as above; format: biochemical, murine; conditions: five minutes after addition
Procedure: as §1

[3] = test system: TABX2S cells (over-expressing Bcl-xL); test: in vitro
Description: Briefly, a DNA fragment encoding the full-length mouse Bcl-xL cDNA was isolated from the plasmid pBS-BCL-xL (Tzung et al., Am. J. Path. 150:1985-1995 (1997), incorporated herein by reference in its entirety) by digestion with the restriction endonuclease EcoRI. This EcoRI fragment was cloned into the EcoRI site of the mammalian expression vector pSFFV (Fuhlbrigge et al., Proc. Nat. Acad. Sci. USA 85:5649-5653 (1988)) in both sense and antisense orientations, to form expression plasmids pSFFV-Bc/-xL-WT(sense) or pSFFV-Bc/-xL(antisense), respectively. The tumorigenic murine hepatocyte cell line TAMH was transfected by lipofection (Lipofectamine, Life Technologies, Rockville, Md., according to the manufacturer's recommendations) with the plasmids pSFFV-neo (the control), pSFFV-Bc/-xL-WT(sense) or pSFFV-Bc/-xL(antisense). Characterization of and culture conditions for the cell lines have been previously published (Wu et al., Proc. Nat. Acad. Sci. USA 91:674-78 (1994); Wu et al., Cancer Res. 54:5964-5973 (1994)). Transfectants were selected for the acquisition of neomycin resistance by growing cells in the presence of 750 μg/ml of G418. Bulk transfectants were cloned by limiting dilution and individual clones were screened by immunoblot analysis to determine the level of Bcl-xL, protein expression as described below.
Selected transfectants were then tested for whole cell sensitivity to several apoptotic agents. Transfected cells were cultured to reach approximately 80% confluency prior to plating an equal number of cells from selected clones on 12-well tissue culture plates. The transplanted cells were treated with the following apoptotic agents: 5 μM doxorubicin for 48 hours; 5 μM cisplatin for 48 hours; or with 200 U/ml tumor necrosis factor (TNF) plus 1 μg/ml actinomycin D for 18 hours. Cell viability was determined by trypan blue dye exclusion. The percentage of viable cells was calculated by the number of viable cells (treated with a particular apoptogenic agent) divided by the number in the control group (untreated).
TABX2S cells and TABX1A cells were also examined for the effects of various mitochondrial inhibitors. […] Azide was diluted from an aqueous stock solution.

TAMH cells = test: Microsequential injection-lab on valve glucose consumption and lactate production; format: cell-based, murine; conditions: 10-100 nM
Procedure: Detailed methods have been previously published (Schulz et al., Analyst 127:1583-1588 (2002)). Cytopore™ beads (Amersham Pharmacia Biotech, Upsala, Sweden) were hydrated in Hanks balanced salt solution (Gibco-BRL, Grand Island, N.Y.) and autoclaved according to manufacturers instructions. Beads were incubated in serum-containing media overnight. TAMH cells were transferred to the bead slurry at an approximate ratio of 50 cells per bead and grown in spinner culture flasks with gentle stirring. Beads were collected for metabolic studies at cell densities of approximately 100-500 cells/bead. For experiments, cell medium was replaced with HBSS. […]
Glucose and lactate concentrations were assayed as substrates in first-order NAD-linked enzymatic reactions, with NADH generation monitored by absorbance at 340 nm. […]
An assay cycle is initiated by packing a column of cells attached to beads in the microbioreactor, which is upstream of the LOV flow cell. […] After the stop flow period, 3 μL of the interstitial fluid from the cell column is injected through to the LOV flow cell previously loaded with glucose or lactate reagent and 340 nm absorbance recorded for 30 s after mixing. Calibration standards were used to convert endpoint absorbance to concentrations. […]

T1 sequence (Q07817 1-213 limits assumed, stated change not applied): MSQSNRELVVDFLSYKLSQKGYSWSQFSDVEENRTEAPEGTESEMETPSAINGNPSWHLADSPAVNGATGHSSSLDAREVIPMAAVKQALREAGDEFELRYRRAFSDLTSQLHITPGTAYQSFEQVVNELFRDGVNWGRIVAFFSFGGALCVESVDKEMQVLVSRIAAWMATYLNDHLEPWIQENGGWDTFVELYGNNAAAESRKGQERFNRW

Substance: antimycin A
- Bcl-xL pore-forming activity (Bcl-xLΔC20): completely blocked
- respiration dampened by [1]: > 90%
- Rh-123 retained (control mitochondria): greater than 80%
- Rh-123 retained [2]: Less than 40%
- time until cell death readily apparent [3]: ≤ 2 h
- glucose uptake and lactate production (TAMH cells): increased glucose uptake and lactate production
